In patent publication US8592448B2 (OSI Pharmaceuticals, LLC, priority 2008, dated 2013):

The molecules below were run against T1, phosphorylated c-MET (Homo sapiens, UniProt P08581) (assay: c-MET cell mechanistic assay (phosphorylated c-MET in MKN45 cells)). Conditions: MKN45 cell line, four hours incubation, phosphorylated c-MET levels, at least duplicate experiments; read-out: Met mech IC50.
T1 construct: endogenous in cells; host or cells: MKN45
Assay type: cell-based
Description: The cellular activity of the compounds of the present invention may be determined by the following procedure. MKN45 cells were plated in Falcon 3072 96-well plates in growth media (RPMI, 10% FBS, 1% L-glutamine) at a density of 5000 cells/well and incubated at 37° C., 5% CO2 overnight. The following day, one-tenth volume of a 10× concentration of compounds was added to the wells in a 6-point dilution series. The dilutions series was composed of an initial 1:5 dilution in DMSO, followed by a 1:10 dilution in growth media, for a final DMSO concentration on cells of 0.5%. Control wells were treated with 0.5% DMSO. The typical range of dilution was 10 μM to 3 nM. Once compound was added to the cells, plates were incubated for four hours at 37° C., 5% CO2. Plates were then washed in PBS, and lysed in triton-based lysis buffer. Lysates were transferred to a precoated capture plate made by Biosource (Cat # KH00281). The phosphorylated c-MET levels were measured by incubating with a rabbit polyclonal antibody against phosphorylated c-MET ([pYpYpY1230/1234/1235]) followed by an anti-rabbit antibody conjugated to HRP. Signal was measured on a Wallac Victor plate reader at 450 nm. The DMSO signal of the control wells was defined as 100% and the percent of inhibition of phosphorylated c-Met was expressed as percent of control. IC50 values were determined from the percent of control data using a standard four-parameter model.
The IC50 values of exemplary compounds of the present invention determined in a c-MET cell mechanistic assay using the MKN45 cell line according to the procedures described herein in at least duplicate experiments are abbreviated as follows and are shown in Table 3: A, IC50≦0.1 μM; B, 0.1 μM<IC50≦1 μM; C, 1 μM<IC50≦10 μM; D, IC50>10 μM; ND, not determined. The Example # of Table 3 corresponds to the compound example number as illustrated in the Examples section.

T1 sequence (P08581 25-1390): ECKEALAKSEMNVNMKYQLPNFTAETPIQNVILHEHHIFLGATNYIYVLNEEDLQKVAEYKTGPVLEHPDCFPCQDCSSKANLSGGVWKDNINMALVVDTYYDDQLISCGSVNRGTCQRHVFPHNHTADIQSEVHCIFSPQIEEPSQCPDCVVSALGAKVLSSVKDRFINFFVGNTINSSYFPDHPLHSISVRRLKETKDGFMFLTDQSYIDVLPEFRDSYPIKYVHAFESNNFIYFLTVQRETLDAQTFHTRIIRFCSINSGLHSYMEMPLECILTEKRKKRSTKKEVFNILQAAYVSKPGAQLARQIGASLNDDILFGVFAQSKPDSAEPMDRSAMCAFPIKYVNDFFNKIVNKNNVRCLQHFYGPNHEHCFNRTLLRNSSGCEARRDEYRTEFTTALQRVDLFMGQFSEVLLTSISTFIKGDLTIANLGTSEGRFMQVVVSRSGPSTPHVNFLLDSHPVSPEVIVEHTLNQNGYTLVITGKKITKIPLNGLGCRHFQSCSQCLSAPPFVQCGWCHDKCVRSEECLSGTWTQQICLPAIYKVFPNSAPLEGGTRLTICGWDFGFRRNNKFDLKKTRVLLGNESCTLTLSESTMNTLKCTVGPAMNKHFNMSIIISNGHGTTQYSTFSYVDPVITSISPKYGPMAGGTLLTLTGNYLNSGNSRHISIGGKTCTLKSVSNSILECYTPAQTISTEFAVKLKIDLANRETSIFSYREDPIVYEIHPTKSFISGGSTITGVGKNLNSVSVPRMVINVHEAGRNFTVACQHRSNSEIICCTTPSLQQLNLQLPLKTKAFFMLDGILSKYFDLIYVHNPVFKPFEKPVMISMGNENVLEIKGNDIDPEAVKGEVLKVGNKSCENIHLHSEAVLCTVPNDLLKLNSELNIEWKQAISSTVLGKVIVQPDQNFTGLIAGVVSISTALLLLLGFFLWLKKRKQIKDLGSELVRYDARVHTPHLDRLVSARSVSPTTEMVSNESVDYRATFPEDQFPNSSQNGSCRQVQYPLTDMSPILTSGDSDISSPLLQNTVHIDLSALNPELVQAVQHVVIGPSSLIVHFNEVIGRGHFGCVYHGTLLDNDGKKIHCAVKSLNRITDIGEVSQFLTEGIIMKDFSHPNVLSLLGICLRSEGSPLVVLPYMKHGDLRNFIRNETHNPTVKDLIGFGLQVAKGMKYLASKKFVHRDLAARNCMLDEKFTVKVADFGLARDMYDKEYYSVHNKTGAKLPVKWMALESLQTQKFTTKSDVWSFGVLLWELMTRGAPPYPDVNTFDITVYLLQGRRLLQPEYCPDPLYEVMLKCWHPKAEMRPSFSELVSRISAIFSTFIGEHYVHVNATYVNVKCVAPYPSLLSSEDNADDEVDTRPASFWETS

| Molecule | IC50 |
| --- | --- |
| C[C@H](c1c(Cl)ccc(F)c1Cl)c1c[nH]c2ncc(-c3cnn(CC(=O)O)c3)cc12 [Example 74, (4-{3-[(S)-1-(2,6-Dichloro-3-fluorophenyl)ethyl]-1H-pyrrolo[2,3-b]pyridin-5-yl}-pyrazol-1-yl)-acetic acid] | 100 to 1000 nM |
| C[C@H](c1c(Cl)ccc(F)c1Cl)c1c[nH]c2ncc(-c3ccncc3)cc12 [Example 68, 3-[(S)-1-(2,6-Dichloro-3-fluorophenyl)ethyl]-5-pyridin-4-yl-1H-pyrrolo[2,3-b]pyridine] | 100 to 1000 nM |
| CC(c1c(Cl)ccc(F)c1Cl)c1c[nH]c2ncc(C3=CCN(C(=O)C(O)C(F)(F)F)CC3)cc12 (stereo not shown) [Example 44] | 100 to 1000 nM |
| CC(c1c(Cl)ccc(F)c1Cl)c1c[nH]c2ncc(-c3cn(C)cn3)cc12 (stereo not shown) [Example 54, 3-[1-(2,6-Dichloro-3-fluorophenyl)ethyl]-5-(1-methyl-1H-imidazol-4-yl)-1H-pyrrolo[2,3-b]pyridine] | 100 to 1000 nM |
| CNC(=O)N1CC=C(c2cnc3[nH]cc(C(C)c4c(Cl)ccc(F)c4Cl)c3c2)CC1 (stereo not shown) [Example 34, 4-{3-[1-(2,6-Dichloro-3-fluorophenyl)ethyl]-1H-pyrrolo[2,3-b]pyridin-5-yl}-3,6-dihydro-2H-pyridine-1-carboxylic acid methylamide] | 100 to 1000 nM |
| 3-[1-(2,6-Dichloro-3-fluorophenyl)ethyl]-5-[1-(1-methanesulfonylpiperidin-4-yl)-1H-pyrazol-4-yl]-1H-pyrrolo[2,3-b]pyridine [Example 37] | 100 to 1000 nM |
| C[C@H](c1c(Cl)ccc(F)c1Cl)c1c[nH]c2ncc(C3=CCCNC3)cc12 [Example 66, 3-[(S)-1-(2,6-Dichloro-3-fluorophenyl)ethyl]-5-(1,2,5,6-tetrahydropyridin-3-yl)-1H-pyrrolo[2,3-b]pyridine] | 100 to 1000 nM |

The remaining lines, values ahead:

| IC50 | Molecule |
| --- | --- |
| 100 to 1000 nM | C[C@@H](c1c(Cl)ccc(F)c1Cl)c1c[nH]c2ncc(-c3cnn(C4CCN(C=O)CC4)c3)cc12 [Example 82, 4-(4-{3-[(R)-1-(2,6-Dichloro-3-fluorophenyl)ethyl]-1H-pyrrolo[2,3-b]-pyridin-5-yl}-pyrazol-1-yl)-piperidine-1-carbaldehyde] |
| ≤ 100 nM | C[C@H](c1c(Cl)ccc(F)c1Cl)c1c[nH]c2ncc(-c3cnn([C@H]4CC[C@H](O)CC4)c3)cc12 [Example 86, trans-4-(4-{3-[(1S)-1-(2,6-dichloro-3-fluorophenyl)ethyl]-1H-pyrrolo[2,3-b]pyridin-5-yl}-1H-pyrazol-1-yl)cyclohexanol] |
| ≤ 100 nM | C[C@H](c1c(Cl)ccc(F)c1Cl)c1c[nH]c2ncc(-c3cnn([C@H]4CC[C@@H](O)CC4)c3)cc12 [Example 87, cis-4-(4-{3-[(1S)-1-(2,6-dichloro-3-fluorophenyl)ethyl]-1H-pyrrolo[2,3-b]pyridin-5-yl}-1H-pyrazol-1-yl)cyclohexanol] |
| 1000 to 10000 nM | C[C@@H](c1c(Cl)ccc(F)c1Cl)c1c[nH]c2ncc(-c3cnn(C4CCN(S(C)(=O)=O)CC4)c3)cc12 [Example 83, 3-[(R)-1-(2,6-Dichloro-3-fluorophenyl)ethyl]-5-[1-(1-methane-sulfonylpiperidin-4-yl)-1H-pyrazol-4-yl]-1H-pyrrolo[2,3-b]pyridine] |
| 100 to 1000 nM | CC(c1c(Cl)ccc(F)c1Cl)c1c[nH]c2ncc(-c3cnn(C4CCN(S(N)(=O)=O)CC4)c3)cc12 (stereo not shown) [Example 52, 4-(4-{3-[1-(2,6-Dichloro-3-fluorophenyl)ethyl]-1H-pyrrolo[2,3-b]pyridin-5-yl}-pyrazol-1-yl)-piperidine-1-sulfonic acid amide] |
| 1000 to 10000 nM | C[C@@H](c1c(Cl)ccc(F)c1Cl)c1c[nH]c2ncc(-c3cnn(C4CCN(C(N)=O)CC4)c3)cc12 [Example 84, 4-(4-{3-[(R)-1-(2,6-Dichloro-3-fluorophenyl)ethyl]-1H-pyrrolo[2,3-b]-pyridin-5-yl}-pyrazol-1-yl)-piperidine-1-carboxamide] |
